Our source for the DC50 values is US20240016942A1, “STAT DEGRADERS AND USES THEREOF” (Kymera Therapeutics, Inc., priority 2020, published 2024).

Structures are written as SMILES.

T1 sequence (P40763 whole entry): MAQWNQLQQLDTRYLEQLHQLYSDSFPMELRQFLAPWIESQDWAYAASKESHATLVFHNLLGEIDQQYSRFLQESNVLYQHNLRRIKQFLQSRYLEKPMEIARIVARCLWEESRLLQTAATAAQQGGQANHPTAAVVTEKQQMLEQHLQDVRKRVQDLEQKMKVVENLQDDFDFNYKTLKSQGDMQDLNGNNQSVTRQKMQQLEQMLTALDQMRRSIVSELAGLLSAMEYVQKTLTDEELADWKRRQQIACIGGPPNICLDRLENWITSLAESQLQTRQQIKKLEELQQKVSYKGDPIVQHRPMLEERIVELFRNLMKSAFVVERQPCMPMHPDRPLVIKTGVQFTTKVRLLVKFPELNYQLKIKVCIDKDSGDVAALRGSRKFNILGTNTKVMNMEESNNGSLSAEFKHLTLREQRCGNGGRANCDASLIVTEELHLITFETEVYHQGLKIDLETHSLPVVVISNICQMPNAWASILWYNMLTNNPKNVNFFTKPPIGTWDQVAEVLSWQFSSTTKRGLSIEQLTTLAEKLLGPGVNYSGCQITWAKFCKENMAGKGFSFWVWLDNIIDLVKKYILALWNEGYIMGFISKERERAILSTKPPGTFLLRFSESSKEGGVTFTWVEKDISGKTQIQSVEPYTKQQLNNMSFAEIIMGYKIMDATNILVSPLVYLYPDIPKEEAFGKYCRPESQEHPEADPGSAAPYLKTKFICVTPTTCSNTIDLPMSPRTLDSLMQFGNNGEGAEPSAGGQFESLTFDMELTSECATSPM

The assay addresses T1, STAT3 (Homo sapiens, UniProt P40763).
T1 construct: expressed in transfected cells; host or cells: A549
Briefly: STAT3 HiBiT degradation assay (Nano-Glo HiBiT lytic detection) in transfected A549 cells. It is filed as cell-based. Particulars: 24 h compound incubation, read-out: STAT3 HiBIT A549 degradation 24 h: Average external-Abs DC50. The method, then: Example 1. HiBiT Assay Protocol
Compound preparation and Cell seeding: The transfected A549 cells were harvested from dish into cell culture medium and cell numbers counted. Cells were diluted with culture medium to the desired density and 30 μL of cell suspension (about 2000 cells/well) were added into each well of a 384-well cell culture plate as designated and transferred into 37° C. 5% CO2 incubator for 24 h. Compounds were dissolved to 10 mM stock solution and 12 μL of the stock solution was transferred to a 384 LDV-plate. 3 fold, 10-point dilution was performed by transferring 4 μL compound into 8 μL DMSO using a TECAN (EVO200) liquid handler. 30 μl of diluted compound from compound source plate was transferred into the cell plate as designated by using Echo550 and transferred into 37° C. 5% CO2 incubator for 24 h.
Detection: Plates were removed from incubators and equilibrated at room temperature for 15 minutes. Nano-Glo Hibit Lytic Detection reagent (Promega Cat #N3040) was thawed and equilibrated to room temperature before the experiment. 30 μL of Nano-Glo Hibit Lytic Detection reagent was added into each well to be detected. The plates were held at room temperature for 10 min followed by reading on EnSpire.
Data analysis: The remaining activity was calculated following the formula: Remaining Activity (%)=100%×(Lumsample−LumNC)/(LumPC−LumNC). Calculate the IC50 by fitting the curve using Xlfit (v5.3.1.3), equation 201: fit=(A+((B−A)/(1+((x/C)^D)))); A: Botton; B: Top; C: IC50; and D: Slope.
The letter codes for STAT3 DC50 include: A (<0.01 μM), B (0.01-0.1 μM), C (0.1-1.0 μM), and D (>1.0 μM).
For orientation: The HiBiT peptide binds its large partner to form an active luciferase.
Turning to `Cc1ncsc1-c1ccc([C@H](C)NC(=O)[C@@H]2C[C@@H](O)CN2C(=O)[C@@H](NC(=O)CCCCc2cccc(OC[C@H](CCC(N)=O)NC(=O)[C@@H]3CC[C@@H]4CCCC[C@H](NC(=O)c5cc6cc(C(=O)P(=O)(O)O)ccc6[nH]5)C(=O)N43)c2Cl)C(C)(C)C)cc1` [I-1], the DC50 (commonly the midpoint of the concentration-degradation curve) is < 10 nM.

For `Cc1ncsc1-c1ccc([C@H](C)NC(=O)[C@@H]2C[C@@H](O)CN2C(=O)[C@@H](NC(=O)CCCc2cccc(OC[C@H](CCC(N)=O)NC(=O)[C@@H]3CC[C@@H]4CCCC[C@H](NC(=O)c5cc6cc(C(=O)P(=O)(O)O)ccc6[nH]5)C(=O)N43)c2Cl)C(C)(C)C)cc1` [I-2], the DC50 was < 10 nM.

As for `Cc1ncsc1-c1ccc([C@H](C)NC(=O)[C@@H]2C[C@@H](O)CN2C(=O)[C@@H](NC(=O)CCCCc2cccc(OC[C@H](CCC(N)=O)NC(=O)[C@@H]3CC[C@@H]4CCCC[C@H](NC(=O)c5cc6cc(C(=O)P(=O)(O)O)ccc6[nH]5)C(=O)N43)c2F)C(C)(C)C)cc1` [I-3], the DC50 is < 10 nM.

Consider `Cc1cc(CCCCCC(=O)N[C@H](C(=O)N2C[C@H](O)C[C@H]2C(=O)N[C@@H](C)c2ccc(-c3scnc3C)cc2)C(C)(C)C)c(F)c(OC[C@H](CCC(N)=O)NC(=O)[C@@H]2CC[C@@H]3CCCC[C@H](NC(=O)c4cc5cc(C(=O)P(=O)(O)O)ccc5[nH]4)C(=O)N32)c1` [I-4], for which the DC50 is < 10 nM.

Regarding `Cc1cc(CCCC(=O)N[C@H](C(=O)N2C[C@H](O)C[C@H]2C(=O)N[C@@H](C)c2ccc(-c3scnc3C)cc2)C(C)(C)C)c(Cl)c(OC[C@H](CCC(N)=O)NC(=O)[C@@H]2CC[C@@H]3CCCC[C@H](NC(=O)c4cc5cc(C(=O)P(=O)(O)O)ccc5[nH]4)C(=O)N32)c1` [I-5], the DC50 is < 10 nM.

As to `Cc1ncsc1-c1ccc([C@H](C)NC(=O)[C@@H]2C[C@@H](O)CN2C(=O)[C@@H](NC(=O)CCCCCc2cccc(OC[C@H](CCC(N)=O)NC(=O)[C@@H]3CC[C@@H]4CCCC[C@H](NC(=O)c5cc6cc(C(=O)P(=O)(O)O)ccc6[nH]5)C(=O)N43)c2F)C(C)(C)C)cc1` [I-6], the 50% degradation concentration (DC50) was 10 to 100 nM.

`Cc1cc(CCCC(=O)N[C@H](C(=O)N2C[C@H](O)C[C@H]2C(=O)N[C@@H](C)c2ccc(-c3scnc3C)cc2)C(C)(C)C)c(F)c(OC[C@H](CCC(N)=O)NC(=O)[C@@H]2CC[C@@H]3CCCC[C@H](NC(=O)c4cc5cc(C(=O)P(=O)(O)O)ccc5[nH]4)C(=O)N32)c1` [I-7]: the DC50 was < 10 nM.

In the case of `Cc1ncsc1-c1ccc([C@H](C)NC(=O)[C@@H]2C[C@@H](O)CN2C(=O)[C@@H](NC(=O)CCCc2cc(F)cc(OC[C@H](CCC(N)=O)NC(=O)[C@@H]3CC[C@@H]4CCCC[C@H](NC(=O)c5cc6cc(C(=O)P(=O)(O)O)ccc6[nH]5)C(=O)N43)c2Cl)C(C)(C)C)cc1` [I-8], the DC50 is < 10 nM.

`Cc1ncsc1-c1ccc([C@H](C)NC(=O)[C@@H]2C[C@@H](O)CN2C(=O)[C@@H](NC(=O)CCCc2cccc(OC[C@H](CCC(N)=O)NC(=O)[C@@H]3CC[C@@H]4CCCC[C@H](NC(=O)c5cc6cc(C(=O)P(=O)(O)O)ccc6[nH]5)C(=O)N43)c2F)C(C)(C)C)cc1` [I-9]: the DC50 is < 10 nM.

For the compound `Cc1ncsc1-c1ccc(C2(NC(=O)[C@@H]3C[C@@H](O)CN3C(=O)[C@@H](NC(=O)CCCCc3cccc(OC[C@H](CCC(N)=O)NC(=O)[C@@H]4CC[C@@H]5CCCC[C@H](NC(=O)c6cc7cc(C(=O)P(=O)(O)O)ccc7[nH]6)C(=O)N54)c3Cl)C(C)(C)C)CC2)cc1` [I-10], the DC50 is < 10 nM.

With `Cc1ncsc1-c1ccc([C@H](C)NC(=O)[C@@H]2C[C@@H](O)CN2C(=O)[C@@H](NC(=O)CCCc2cccc(OC[C@H](CCC(N)=O)NC(=O)[C@@H]3CCCN3C(=O)[C@H](CO)NC(=O)c3cc4cc(C(=O)P(=O)(O)O)ccc4[nH]3)c2Cl)C(C)(C)C)cc1` [I-11], the 50% degradation concentration (DC50) lay in the range of 10 to 100 nM.

Take `Cc1ncsc1-c1ccc([C@H](C)NC(=O)[C@@H]2C[C@@H](O)CN2C(=O)[C@@H](NC(=O)CCCc2cccc(OC[C@H](CCC(N)=O)NC(=O)[C@@H]3CCCN3C(=O)[C@@H](NC(=O)c3cc4cc(C(=O)P(=O)(O)O)ccc4[nH]3)C3CCCCC3)c2Cl)C(C)(C)C)cc1` [I-12]: the DC50 was in the range of 10 to 100 nM.

On to `Cc1ncsc1-c1ccc([C@H](C)NC(=O)[C@@H]2C[C@@H](O)CN2C(=O)[C@@H](NC(=O)CCCc2cccc(OC[C@H](CCC(N)=O)NC(=O)[C@@H]3CCCN3C(=O)CNC(=O)c3cc4cc(C(=O)P(=O)(O)O)ccc4[nH]3)c2Cl)C(C)(C)C)cc1` [I-13], for which the DC50 is 10 to 100 nM.

For `Cc1ncsc1-c1ccc([C@H](C)NC(=O)[C@@H]2C[C@@H](O)CN2C(=O)[C@@H](NC(=O)CCCc2cccc(OC[C@H](CCC(N)=O)NC(=O)[C@@H]3CCCN3C(=O)[C@@H](NC(=O)c3cc4cc(C(=O)P(=O)(O)O)ccc4[nH]3)C(C)(C)C)c2Cl)C(C)(C)C)cc1` [I-14], the 50% degradation concentration (DC50) was in the range of 100 to 1000 nM.

For `Cc1ncsc1-c1ccc([C@H](C)NC(=O)[C@@H]2C[C@@H](O)CN2C(=O)[C@@H](NC(=O)CCCc2cccc(OC[C@H](CCC(N)=O)NC(=O)[C@@H]3CCCN3C(=O)[C@@H](NC(=O)c3cc4cc(C(=O)P(=O)(O)O)ccc4[nH]3)C(C)C)c2Cl)C(C)(C)C)cc1` [I-15, 2-[[(2S)-1-[(2S)-2-[[(2S)-4-carbamoyl-1-[2-chloro-3-(3-[[(2S)-1-[(2S,4R)-4-hydroxy-2-[[(1S)-1-[4-(4-methyl-1,3-thiazol-5-yl)phenyl]ethyl]carbamoyl]pyrrolidin-1-yl]-3,3-dimethyl-1-oxobutan-2-yl]carbamoyl]propyl)phenoxy]butan-2-yl]carbamoyl]pyrrolidin-1-yl]-3-methyl-1-oxobutan-2-yl]carbamoyl]-1H-indole-5-carbonylphosphonic acid], the DC50 was 10 to 100 nM.

Regarding `CNC(=O)[C@@H]1Cc2cc(CCCCCCc3ccc4c(c3)n(C)c(=O)n4C3CCC(=O)NC3=O)cc3c2N1C(=O)[C@@H](NC(=O)c1cc2cc(C(=O)P(=O)(O)O)ccc2[nH]1)CC3` (some centres unmarked) [I-20], the DC50 is > 1000 nM.

As to `C[C@H](CCC(=O)N(C)C)NC(=O)[C@@H]1Cc2cc(CCCCCCc3ccc4c(c3)n(C)c(=O)n4C3CCC(=O)NC3=O)cc3c2N1C(=O)[C@@H](NC(=O)c1cc2cc(C(=O)P(=O)(O)O)ccc2[nH]1)CC3` (some centres unmarked) [I-21], the DC50 is > 1000 nM.

In the case of `CNC(=O)CC[C@@H](C)NC(=O)[C@@H]1Cc2cc(CCCCCCc3ccc4c(c3)n(C)c(=O)n4C3CCC(=O)NC3=O)cc3c2N1C(=O)[C@@H](NC(=O)c1cc2cc(C(=O)P(=O)(O)O)ccc2[nH]1)CC3` (some centres unmarked) [I-22], the DC50 is > 1000 nM.

`CC(=O)N1CC[C@H]2CC[C@@H](C(=O)N[C@@H](CCC(N)=O)COc3cc(C)cc(CCCCCC(=O)N[C@H](C(=O)N4C[C@@H](O)C[C@H]4C(=O)N[C@@H](C)c4ccc(-c5scnc5C)cc4)C(C)(C)C)c3F)N2C[C@@H](NC(=O)c2cc3cc(C(=O)P(=O)(O)O)ccc3[nH]2)C1` [I-23]: the DC50 was > 1000 nM.

Turning to `CC(=O)N1CC[C@H]2CC[C@@H](C(=O)N[C@H](CCC(N)=O)COc3cccc(CCCCC(=O)N[C@H](C(=O)N4C[C@H](O)C[C@H]4C(=O)N[C@@H](C)c4ccc(-c5scnc5C)cc4)C(C)(C)C)c3Cl)N2C(=O)[C@@H](NC(=O)c2cc3cc(C(=O)P(=O)(O)O)ccc3[nH]2)C1` [I-24], the DC50 lay within 100 to 1000 nM.

Take `CN(C)C(=O)[C@@H]1Cc2cc(CCCCCCc3ccc4c(c3)n(C)c(=O)n4C3CCC(=O)NC3=O)cc3c2N1C(=O)[C@@H](NC(=O)c1cc2cc(C(=O)P(=O)(O)O)ccc2[nH]1)CC3` (stereo partly drawn) [I-25, 2-[[(2S, 11S)-2-(dimethylcarbamoyl)-6-[6-[1-(2,6-dioxopiperidin-3-yl)-3-methyl-2-oxo-1,3-benzodiazol-5-yl]hexyl]-12-oxo-1-azatricyclo [6.4.1.0^[4, 13]]trideca-4(13), 5,7-trien-11-yl]carbamoyl]-1H-indole-5-carbonylphosphonic acid]: the DC50 is > 1000 nM.

In the case of `Cn1c(=O)n(C2CCC(=O)NC2=O)c2ccc(C[C@H]3CC[C@@H](CC(=O)N4CC[C@H]5CC[C@@H](C(=O)NC(C)(C)CCC(N)=O)N5C(=O)[C@@H](NC(=O)c5cc6cc(C(=O)P(=O)(O)O)ccc6[nH]5)C4)CC3)cc21` (some centres unmarked) [I-26], the DC50 was > 1000 nM.

Take `Cn1c(=O)n(C2CCC(=O)NC2=O)c2ccc(CCCc3cccc(OC[C@H](CCC(N)=O)NC(=O)[C@@H]4CC[C@@H]5CCCC[C@H](NC(=O)c6cc7cc(C(=O)P(=O)(O)O)ccc7[nH]6)C(=O)N54)c3Cl)cc21` (some centres unmarked) [I-27]: the DC50 is > 1000 nM.

As to `Cn1c(=O)n(C2CCC(=O)NC2=O)c2ccc(CCCCCc3cccc(OC[C@H](CCC(N)=O)NC(=O)[C@@H]4CC[C@@H]5CCCC[C@H](NC(=O)c6cc7cc(C(=O)P(=O)(O)O)ccc7[nH]6)C(=O)N54)c3Cl)cc21` (some centres unmarked) [I-28], the DC50 is 100 to 1000 nM.

As to `Cn1c(=O)n(C2CCC(=O)NC2=O)c2ccc(C[C@H]3CC[C@@H](CC(=O)N4CC[C@H]5CC[C@@H](C(=O)NC6(CCC(N)=O)CCCC6)N5C(=O)[C@@H](NC(=O)c5cc6cc(C(=O)P(=O)(O)O)ccc6[nH]5)C4)CC3)cc21` (some centres unmarked) [I-29], the DC50 is > 1000 nM.

`CC(C)c1ccc(CNC(=O)[C@H](CCC(N)=O)NC(=O)[C@@H]2CC[C@@H]3CCN(C(=O)[C@H]4CC[C@@H](CCc5ccc6c(c5)n(C)c(=O)n6C5CCC(=O)NC5=O)CC4)C[C@H](NC(=O)c4cc5cc(C(=O)P(=O)(O)O)ccc5[nH]4)C(=O)N32)cc1F` (some centres unmarked) [I-30]: the DC50 is 10 to 100 nM.
